This note sets out measurements from paper PMC6030096, “Synergy of Physico-chemical and Biological Experiments for Developing a Cyclooxygenase-2 Inhibitor” (Scientific Reports, 2018).

Where two headings read alike, the source gives them in different places.

The target of assay [1] is T1, COX-2 (Homo sapiens, UniProt P35354).
T1 sequence (P35354 18-604): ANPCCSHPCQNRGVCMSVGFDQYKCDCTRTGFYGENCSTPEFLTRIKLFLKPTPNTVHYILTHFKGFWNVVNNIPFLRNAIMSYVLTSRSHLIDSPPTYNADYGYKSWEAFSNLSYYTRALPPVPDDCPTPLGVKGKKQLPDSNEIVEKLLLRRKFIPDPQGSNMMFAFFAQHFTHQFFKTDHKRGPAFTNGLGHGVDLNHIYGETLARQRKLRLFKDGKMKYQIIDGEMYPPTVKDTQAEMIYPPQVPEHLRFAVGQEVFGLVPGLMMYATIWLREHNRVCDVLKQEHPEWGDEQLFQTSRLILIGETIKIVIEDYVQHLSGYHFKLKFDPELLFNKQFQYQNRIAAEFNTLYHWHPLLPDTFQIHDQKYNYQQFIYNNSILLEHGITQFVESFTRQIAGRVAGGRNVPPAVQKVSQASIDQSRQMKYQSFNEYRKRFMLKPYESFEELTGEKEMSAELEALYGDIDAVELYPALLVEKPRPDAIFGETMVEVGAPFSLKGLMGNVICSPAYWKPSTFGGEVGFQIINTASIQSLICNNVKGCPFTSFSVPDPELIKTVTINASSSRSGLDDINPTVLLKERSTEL
As to the kind of experiment: Human whole blood assay for COX-2 (LPS stimulated PGE2). In kind it is cell-based. On the set-up: endogenous in cells; host or cells: human whole blood, aspirin-pretreated, LPS-stimulated. The note with it: final conc 1 µM, LPS 10 µg mL^−1. Here is the method: The use of human blood for the whole blood assay was duly approved by the institutional ethical committee of the University for human subjects. Production of prostaglandin PGE2 during lipopolysaccharide (LPS) stimulated whole blood was used to quantify COX-2 inhibitory activity whereas calcium ionophore (A23187) stimulated thromboxane (TxB2) production was used to measure COX-1 inhibitory activity of the compounds.
COX-2 assay was performed by inactivating COX-1 with 50 µL aspirin (10 µg/mL) per 400 µL of blood sample.

Assay [2] concerns the target T2, 5-LOX (Soybean lipoxygenase) (Glycine max, UniProt P08170).
T2 construct: purchased Cayman Chemical Co. 760700
T2 sequence (P08170 1-839): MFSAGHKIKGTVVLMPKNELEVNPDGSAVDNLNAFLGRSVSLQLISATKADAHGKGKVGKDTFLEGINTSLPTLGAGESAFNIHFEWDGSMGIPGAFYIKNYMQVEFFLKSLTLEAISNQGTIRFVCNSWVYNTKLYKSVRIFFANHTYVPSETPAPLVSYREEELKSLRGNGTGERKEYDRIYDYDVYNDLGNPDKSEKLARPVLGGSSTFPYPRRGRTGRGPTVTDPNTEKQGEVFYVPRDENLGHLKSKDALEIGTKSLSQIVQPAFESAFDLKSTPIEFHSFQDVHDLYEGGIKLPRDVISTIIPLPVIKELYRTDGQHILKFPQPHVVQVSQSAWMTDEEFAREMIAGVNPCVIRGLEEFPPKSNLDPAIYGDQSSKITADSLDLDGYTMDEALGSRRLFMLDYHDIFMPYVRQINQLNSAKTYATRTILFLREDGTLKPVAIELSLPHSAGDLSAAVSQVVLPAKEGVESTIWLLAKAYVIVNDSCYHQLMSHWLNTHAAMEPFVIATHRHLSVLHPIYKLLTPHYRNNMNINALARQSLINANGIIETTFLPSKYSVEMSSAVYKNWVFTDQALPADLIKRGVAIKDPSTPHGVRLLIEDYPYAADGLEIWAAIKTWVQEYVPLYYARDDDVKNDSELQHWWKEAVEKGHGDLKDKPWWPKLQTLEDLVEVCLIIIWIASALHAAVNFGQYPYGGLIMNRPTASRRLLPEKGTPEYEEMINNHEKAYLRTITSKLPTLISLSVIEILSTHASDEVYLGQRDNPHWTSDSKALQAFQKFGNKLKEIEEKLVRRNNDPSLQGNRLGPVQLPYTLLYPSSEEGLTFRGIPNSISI
As to the kind of experiment: Lipoxygenase inhibitory activity assay. Type of assay: biochemical. As for the experimental part:
10 µL of the compound of each concentration was mixed with 90 µL 5-LOX (Soybean lipoxygenase in assay buffer) in the specified wells of the 96-well plate. Two wells containing assay buffer and AA acted as blanks whereas four wells, each carrying enzyme and AA, were positive controls. 10 µL AA was added to each test well and the plate was shaken for 5 min. Chromogen (100 µL) was added to each well and the plate was again shaken for 5 min. The absorbance of each well at 490 nm was recorded on microplate scanning spectrophotometer. As per the protocol given with the assay kit, the 5-LOX inhibitory activity for each compound at each concentration was determined using the mean of the two values (duplicate experiments) with deviation <5%.

The mark [3] stands for this setting: soybean lipoxygenase, duplicate, read-out: IC50 5-LOX.

Usually IC50 stands for the concentration that inhibits the measured activity by half. For the compound `O=C1Nc2ccccc2C1=Cc1cn(C[C@H](O)Cn2c3ccccc3c(=O)c3ccccc32)c2ccccc12` [(S)-3c], the “Production of PGE2, +LPS” value in assay [1] was 0.97 ± 0.09 ng/mL. Also, in assay [2] (setting [3]), the IC50 was found to be 0.5 ± 0.028 µM.

`O=C1NC(=O)C(=Cc2cn(CCCn3c4ccccc4c(=O)c4ccccc43)c3ccccc23)C(=O)N1` [Compound 4a]: the “Production of PGE2, +LPS” value in assay [1] was determined as 1.00 ± 0.13 ng/mL. In assay [2], this compound yielded an IC50 of 0.2 ± 0.01 µM.

In the case of `O=C1Nc2ccccc2C1=Cc1cn(CCCn2c3ccccc3c(=O)c3ccccc32)c2ccccc12` [Compound 4c], the “Production of PGE2, +LPS” value in assay [1] worked out at 1.01 ± 0.14 ng/mL. Further, the concentration for half-maximal inhibition (IC50) in assay [2] (setting [3]) was determined as 0.1 ± 0.08 µM.
